Assays:
ICRAC = ICRAC (Homo sapiens, UniProt Q96D31); settings: read-out: IC50 (ICRAC inhibition); cited from earlier work
STIM1 clustering = settings: vascular smooth muscle cells; cited from earlier work
[1] = test system: tBHQ-induced calcium influx into Hek cells (SOCE); assay: Store-operated calcium entry (SOCE) by Fura-2 Ca2+ measurements in Hek cells; assay type: cell-based, Human
[2] = test system: vascular smooth muscle cells; settings: cited from earlier work
[3] = target: T1, overexpressed TRPC5 channels (Homo sapiens, UniProt Q9UL62); settings: cited from earlier work
T1 sequence (Q9UL62 1-973): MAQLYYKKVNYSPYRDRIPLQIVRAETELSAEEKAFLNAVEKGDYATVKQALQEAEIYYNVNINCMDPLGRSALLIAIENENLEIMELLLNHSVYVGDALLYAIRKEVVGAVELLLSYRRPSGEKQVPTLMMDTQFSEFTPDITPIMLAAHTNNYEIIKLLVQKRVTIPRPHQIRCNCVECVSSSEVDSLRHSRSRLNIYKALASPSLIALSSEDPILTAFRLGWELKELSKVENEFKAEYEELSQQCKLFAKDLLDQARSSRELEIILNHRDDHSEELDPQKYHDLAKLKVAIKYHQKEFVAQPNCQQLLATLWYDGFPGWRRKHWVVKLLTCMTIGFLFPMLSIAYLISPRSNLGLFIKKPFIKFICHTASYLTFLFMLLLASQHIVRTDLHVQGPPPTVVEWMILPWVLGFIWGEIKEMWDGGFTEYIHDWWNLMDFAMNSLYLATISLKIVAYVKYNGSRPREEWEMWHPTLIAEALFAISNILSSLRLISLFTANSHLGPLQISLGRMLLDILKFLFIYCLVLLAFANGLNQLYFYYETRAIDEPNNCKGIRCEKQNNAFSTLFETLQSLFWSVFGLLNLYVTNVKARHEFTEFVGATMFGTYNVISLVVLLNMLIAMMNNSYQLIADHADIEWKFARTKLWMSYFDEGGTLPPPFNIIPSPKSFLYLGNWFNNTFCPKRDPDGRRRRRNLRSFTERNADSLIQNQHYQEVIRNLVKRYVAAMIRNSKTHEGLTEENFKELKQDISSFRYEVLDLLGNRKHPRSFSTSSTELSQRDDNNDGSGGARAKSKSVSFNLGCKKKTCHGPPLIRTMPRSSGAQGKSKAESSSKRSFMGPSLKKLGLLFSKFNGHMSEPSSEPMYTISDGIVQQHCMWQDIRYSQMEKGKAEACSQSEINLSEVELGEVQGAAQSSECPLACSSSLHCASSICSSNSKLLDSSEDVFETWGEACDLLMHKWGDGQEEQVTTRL

[4] = test system: T cell cytokine production; settings: T cells; cited from earlier work
endogenous TRPC1/5 = endogenous TRPC1/5 (Homo sapiens, UniProt P48995+Q9UL62); settings: cited from earlier work
Sequence of endogenous TRPC1/5 (P48995 whole entry, one chain of several): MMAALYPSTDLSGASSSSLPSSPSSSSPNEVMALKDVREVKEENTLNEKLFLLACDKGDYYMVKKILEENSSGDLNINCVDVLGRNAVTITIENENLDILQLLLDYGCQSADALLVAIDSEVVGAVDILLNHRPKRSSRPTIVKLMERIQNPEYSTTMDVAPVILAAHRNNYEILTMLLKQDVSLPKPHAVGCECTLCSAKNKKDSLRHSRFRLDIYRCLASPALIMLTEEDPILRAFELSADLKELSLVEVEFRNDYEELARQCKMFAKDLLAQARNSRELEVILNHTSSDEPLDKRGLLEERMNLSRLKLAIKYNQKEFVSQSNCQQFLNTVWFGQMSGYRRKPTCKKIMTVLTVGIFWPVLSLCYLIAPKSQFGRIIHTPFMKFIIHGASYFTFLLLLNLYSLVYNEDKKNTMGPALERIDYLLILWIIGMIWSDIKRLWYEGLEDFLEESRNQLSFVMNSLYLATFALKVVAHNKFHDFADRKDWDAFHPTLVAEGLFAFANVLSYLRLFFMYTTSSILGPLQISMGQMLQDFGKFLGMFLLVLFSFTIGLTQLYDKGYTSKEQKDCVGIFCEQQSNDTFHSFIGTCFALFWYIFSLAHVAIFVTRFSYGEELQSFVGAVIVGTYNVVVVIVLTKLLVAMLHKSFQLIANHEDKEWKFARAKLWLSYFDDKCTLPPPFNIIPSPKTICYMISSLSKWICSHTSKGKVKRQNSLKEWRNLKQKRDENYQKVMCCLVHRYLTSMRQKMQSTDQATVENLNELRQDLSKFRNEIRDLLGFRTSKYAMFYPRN

[5] = Cytotoxicity, residual cell viability after 24 hours; assay type: cell-based; settings: 10 μM
[6] = test system: metabotropic glutamate, muscarinic acetylcholine and GABA B receptors, GABA A, AMPA and NMDA receptors, tetrodotoxin-sensitive Na+ channels, N- and P/Q-type …; settings: cited from earlier work

Sequence of ICRAC (Q96D31 whole entry): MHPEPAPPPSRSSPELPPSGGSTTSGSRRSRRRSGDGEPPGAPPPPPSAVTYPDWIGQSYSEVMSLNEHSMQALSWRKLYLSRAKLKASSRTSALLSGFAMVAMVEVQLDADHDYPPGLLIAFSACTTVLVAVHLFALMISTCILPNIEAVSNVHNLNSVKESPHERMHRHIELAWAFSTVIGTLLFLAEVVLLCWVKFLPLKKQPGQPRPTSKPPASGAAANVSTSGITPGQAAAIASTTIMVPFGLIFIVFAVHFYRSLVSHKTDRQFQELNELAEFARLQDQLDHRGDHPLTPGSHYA

COc1ccc(OC)c(-c2ccc(NC(=O)c3ccncc3F)cc2)c1 [Synta66, 3-fluoropyridine-4-carboxylic acid (2′,5′-dimethoxybiphenyl-4-yl)amide]
IC50 (ICRAC): ~1000 nM | interference with STIM1 clustering (STIM1 clustering): does not interfere with STIM1 clustering | IC50 in inhibiting SOCE activity [1]: in the nanomolar range | IC50 [2]: ~30 nM | inhibition of overexpressed TRPC5 channels [3]: does not inhibit | production of IFN-gamma, IL-2 and IL-17 [4]: inhibits the production | production of IL-8 [4]: but not of IL-8 | inhibition of endogenous TRPC1/5 (endogenous TRPC1/5): does not inhibit | residual cell viability [5]: 76% | effect on receptors and ion channels (mGlu, muscarinic, GABA B, GABA A, AMPA, NMDA, TTX-sensitive Na+, N- and P/Q-type Ca2+ channels) [6]: does not affect

Reference: US12655113B2, “Biphenyl compounds as SOCE modulators, compositions and uses thereof” (Università degli Studi del Piemonte Orientale “Amedeo …, priority 2020, dated 2026)
